Measurements from patent US10150793B2, “Antagonists of CB1 receptor” (INSERM (Institut National de la Santé et de la Recherche …, priority 2011, dated 2018).
“Also recorded” adds a separate entry of the source.

Experiments:
CB1 receptor [1] = biological target: T1, CB1 receptor (Rattus norvegicus, UniProt P20272); assay: THC-induced increase in food intake in ad libitum fed Wistar rats; type: in vivo; parameters: tissue Charles River Laboratories (France) (animals); host or cells: living Wistar rats, whole animal; settings: THC 0.5 mg/kg; 17-methylpregnenolone 8 mg/kg sc
T1 sequence (P20272 whole entry): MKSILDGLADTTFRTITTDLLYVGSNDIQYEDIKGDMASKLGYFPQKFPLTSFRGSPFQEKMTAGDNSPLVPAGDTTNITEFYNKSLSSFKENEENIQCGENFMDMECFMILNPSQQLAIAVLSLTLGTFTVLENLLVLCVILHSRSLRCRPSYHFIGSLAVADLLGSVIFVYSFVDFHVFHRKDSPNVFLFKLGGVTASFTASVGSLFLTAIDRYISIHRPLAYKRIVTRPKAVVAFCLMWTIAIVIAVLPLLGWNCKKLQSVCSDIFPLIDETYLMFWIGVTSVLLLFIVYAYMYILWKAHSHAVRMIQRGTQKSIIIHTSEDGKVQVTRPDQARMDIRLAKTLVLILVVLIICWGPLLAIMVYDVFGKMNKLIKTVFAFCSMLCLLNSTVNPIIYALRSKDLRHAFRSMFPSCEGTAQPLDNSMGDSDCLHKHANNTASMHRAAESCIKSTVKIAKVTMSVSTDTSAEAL
Protocol: (§1) Food intake was evaluated by measuring consumption of food in the home cages of the animals. For each animal, 50-100 g of standard laboratory chow (U.A.R., France) was placed in the cleaned home cage. The remaining amount of food was weighted 1 h later and the amount of food consumed calculated.

CB1 receptor [2] = biological target: T2, CB1 receptor (Mus musculus, UniProt P47746); assay: THC-induced increase in food intake in mice; type: in vivo; parameters: tissue Charles River Laboratories (France) (animals); host or cells: living mice, whole animal; settings: for effect on THC-induced increase in food intake (hyperphagia) in mice: 24 h-food deprived C57B1/6 mice, THC 1 mg/kg, compound 2 mg/kg sc; for % Inhibition of THC-Induced food intake: mice, THC between 0.5 and 1 mg/kg, compounds between 2 and 4 mg/kg 30 min before THC
T2 sequence (P47746 whole entry): as the sequence (P20272 whole entry) above, with E95D counted along it
Protocol: as §1
(§2) Other pregnenolone derivatives (Table 4) for which the metabolism in downstream active steroids was reduced were tested for their ability to inhibit: 1. effects of the THC-induced cannabinoid tetrade (decrease in body temperature and in locomotor activity, (THC 10 mg/kg, compounds 6 mg/kg 15-30 min before THC) that is recognized as a sound method to evaluate the activation of the CB1 receptor; 2. THC-induced increase in food intake a typical effect of CB1 activation (THC between 0.5 and 1 mg/kg, compounds between 2 and 4 mg/kg 30 min before THC); 3. the increase in TNFalpha induced by LPS, another effects typical of CB1 […] (compounds 6 mg/kg 15 min before LPS). For each compound and each test independent groups of animals were used (at least n=6 per compound/per test).

TNF-α = assay: Increase in plasma TNF-alpha induced by LPS; type: in vivo, mice; settings: Mus musculus; mice; compounds 6 mg/kg 15 min before LPS
Protocol: Trunk blood was collected and centrifuged at 3000 rpm for 15 min at 4° C. Plasma was stored at −80° C. until measurement of TNFα was carried out. Plasma TNFα levels were assessed using an ELISA kit, following the manufacturer's instructions (Fisher Scientific, Catalog #E6473C).
In this example the inventors further analyzed the ability of pregnenolone to inhibit the effects of CB1 activation in the context of inflammation and fibrosis. […] TNF-alpha is one of the cellular responses to inflammatory stimuli more involved in promoting fibrosis.
as §2

[3] = Allopregnanolone and epiallopregnanolone in nucleus accumbens after high dose injection (GC/MS); type: in vivo, Wistar rats; settings: 50 mg/kg; 30 min after the injections
Protocol: The capacity of a compound of the invention to be or not to be converted into active pregnenolone downstream derivatives may be evaluated by administering this compound, for example by injecting 50 mg/kg, to a rat, sacrificing the rat 30 min later, measuring the concentration of allopregnanolone and epiallopregnanolone in nucleus accumbens of rat by GC/MS and comparing these concentrations to allopregnanolone and epiallopregnanolone in a rat whose has been injected only a vehicle or pregnenolone.
The concentrations of allopregnanolone and epiallopregnanolone were measured in nucleus accumbens of individual animal by GC/MS 30 min after the injections.

CHO cells = assay: Study of metabolism in vitro in CHO cells, steroids in culture medium by GC/MS; settings: CHO cells
Protocol: (§3) Plasma, brain and culture medium levels of pregnenolone (5-Pregnen-3β-ol-20-one), allopregnanolone (3α-hydroxy-5α-pregnan-20-one), epiallopregnanolone (3β-hydroxy-5α-pregnan-ol-20-one), testosterone, and 5α dihydrotestosterone were determined by GC/MS according to the of estraction, purification and quantification protocol described previously (George O, et al., Biol Psychiatry. 2010 68: 956-63, Vallee M, et al., Anal Biochem. 2000, 287:153-66).
The CHO-K1 cell line (#CCL-61, ATCC-LGC, USA) derived as a subclone from the parental CHO cell line initiated from a biopsy of an adult Chinese hamster ovary was used. The CHO-K1 cells were seeded on 24-well plates (#353047, BD Biosciences, USA) to the appropriate concentration (25×10^4 cells/well) in fresh, antibiotic-free medium constituted by 90% DMEM-Glutamax; (#31966-21, Life technologies, USA) and 10% Fetal Bovine Serum (#10270-106, Life technologies, USA).
In this example the inventors further analyzed the metabolism of pregnenolone derivatives using an in vitro test in CHO cells. These cells derived from the ovary have all the enzymes needed to metabolize pregnenolone in down stream steroids.

CB1 receptor [4] = biological target: T2, CB1 receptor; assay: Food intake in 24 h-food deprived mice (fasting/refeeding); type: in vivo, C57B1/6 mice; parameters: tissue Charles River Laboratories (France) (animals); host or cells: living mice, whole animal; settings: no THC; for first statistically significant dose for decrease of food intake: food-deprived (food-restricted) mice; for effect on food intake in 24 h-food deprived mice: food intake over 1 h
CB1 receptor [5] = biological target: T2, CB1 receptor; assay: THC-induced cannabinoid tetrad (body temperature, locomotor activity, catalepsy, analgesia); type: in vivo, mice; parameters: tissue Charles River Laboratories (France) (animals); host or cells: living mice, whole animal; settings: mice; THC 10 mg/kg; compounds 6 mg/kg 15-30 min before THC
CB1 receptor [6] = biological target: T1, CB1 receptor; assay: Pregnenolone concentrations in the brain after drugs of abuse and CB1 ligands (GC/MS); type: in vivo, Wistar rats; parameters: tissue Charles River Laboratories (France) (animals); host or cells: living Wistar rats, whole animal; settings: for effect of CB1/CB2 agonists on pregnenolone concentrations: rats, n=6-12 per group
Protocol: as §3
In this example the inventors analyzed the effects of the injection of the principal drugs of abuse on the production of pregnenolone in male Wistar rats. […] For example, in the brain, starting from pregnenolone two parallel enzymatic cascades allow producing on one hand allopregnanolone and its stereoisomer epiallopregnanolone and on the other testosterone and its metabolite DHT. These brain steroids were quantified using GC-MS, the only technique able to differentiate their subtle structural differences. […] Concentrations of neurosteroids were analyzed 15, 30 and 120 min after the injection in several ascending brain structure, the ventral midbrain the hypothalamus, the striatal complex and the frontal cortex.
The example provides data obtained in the plasma and in several brain structures: frontal cortex (FCX); nucleus accumbens (ACC); striatum (STR); hypothalamus (HYP).
The effects of THC in the brain are mediated by a family of G-protein-coupled seven membrane receptors (GCPR) and principally by the CB1 and CB2 receptors.

CB1 receptor [7] = biological target: T2, CB1 receptor; assay: THC inhibition of fEPSP in nucleus accumbens slices; type: cell-based, mice; parameters: from tissue; host or cells: acute brain slices, nucleus accumbens; settings: control slices
Protocol: Animals were deeply anesthetized with Isoflourane and transcardially perfused with a sucrose-based physiological solution at 4° C. (in mM: 23 NaHCO3, 70 Choline Cl, 75 Sucrose, 25 Glucose, 2.5 KCl, 1.25 NaH2PO4, 7 MgCl2 and 0.5 CaCl2). The brain was removed and sliced (250-300 μm) in the coronal plane using a vibratome (Campden Instruments, Loughborough, UK). During the slicing process, the brain was maintained in the sucrose-based solution. Immediately after cutting, slices were stored at 32° C. for 40 minutes in a low-calcium artificial cerebrospinal fluid (low-Ca^2+ ACSF) that contained (in mM): 23 NaHCO3, 120 NaCl, 11 Glucose, 2.5 KCl, 1.2 NaH2PO4, 2.4 MgCl2, 1.2 CaCl2. Slices were then stored in low-Ca^2+ ACSF at room temperature until recording.
For fEPSPs, extracellular glass recording and stimulating electrodes were filled with ACSF. Synaptic potentials were evoked by means of two electric stimuli (0.1-0.25 mA, 200 μsec duration) delivered at 20 Hz every 10 seconds. Stimulating electrode was placed at a distance>150 μm in the dorsomedial direction from the recoding electrode.
In order to test the effect of pregnenolone on a wider range of THC concentrations, we recorded fEPSP in NAc slices. Due to the possibility to achieved stable fEPSP measurements for several hours, this technique is ideally suited to perform dose-response curves and has previously been used to address CB1 receptor function (Robbe et al., 2001; Mato et al., 2004). Thus, AMPAR-mediated evoked fEPSP were recorded by electrically stimulating local axons.

CB1 receptor [8] = biological target: T1, CB1 receptor; assay: THC inhibition of AMPAR-mediated EPSC, patch clamp in nucleus accumbens slices; type: cell-based, rats; parameters: from tissue; host or cells: acute coronal brain slices, nucleus accumbens; settings: control slices
[9] = Elevated plus maze, anxiety-like behaviors; type: in vivo, mice; settings: sc, 30 min before test; pregnenolone 1, 6, 10 mg/kg; rimonabant 10 mg/kg
Protocol: The elevated plus maze was made by a central platform (10×10 cm) from which departed 4 arms (45×10 cm) at a 90° angle from each other. Two opposite arms, named closed arms had peripheral wall 50 cm high. The two other arms, named open arms had no walls. The maze was suspended at 66 cm from the floor of the room and was brightly lighted (120 lux). The testing consisted in placing the animal in the central platform and the number of entry and the time spent in each compartment of the maze recorded for 5 min. The number of entry and time spent in the open arms are considered and index of anxiety-like behaviors, whilst the total number of entry are and index of locomotor activity.
One of the major side effects of orthosteric antagonists of the CB1 is the induction of behavioral side effect and in particular an axiodepressive state. […] This test has been chosen because an increase in anxiety was the principal undesirable side effect of this compound in humans.

SMILES	effect on increase in food intake induced by THC in ad libitum fed Wistar rats (CB1 receptor [1])	effect on THC-induced increase in food intake (hyperphagia) in mice (CB1 receptor [2])	% Inhibition of THC-Induced food intake (CB1 receptor [2])	production of allopregnanolone and epiallopregnanolone in nucleus accumbens [3]	metabolism in downstream active steroids (Reduced metabolism / Metabolized) (CHO cells)	first statistically significant dose for decrease of food intake (CB1 receptor [4]) [mg/kg]	effect on food intake in 24 h-food deprived mice (CB1 receptor [4])	also measured
CC(=O)C1CCC2C3CC=C4C[C@@H](F)CC[C@]4(C)C3CC[C@]12C (stereo partly drawn) [Compound 1, 3β-Fluoropregnenolone]	non statistically significant trend to decrease	decreased THC-induced hyperphagia	≥100%, P < 0.01	None of the modified pregnenolone derivatives	Reduced metabolism	6	dose-dependently decreased food intake	inhibition in vivo at 6 mg/kg (TNF-α): 58%
CC(=O)[C@@]1(C)CCC2C3CC=C4C[C@@H](O)CC[C@]4(C)C3CC[C@@]21C (stereo partly drawn) [Compound 2, 17α-Methylpregnenolone]	significantly reduced; also recorded: decrease significantly the increase in food intake induced by THC in rats	decreased THC-induced hyperphagia	≥100%, P < 0.001	None of the modified pregnenolone derivatives	Reduced metabolism	4	dose-dependently decreased food intake	% Inhibition temperature decrease (CB1 receptor [5]): 43%, P < 0.001; % increase in motor activity (CB1 receptor [5]): 240%, P < 0.01; dose inhibiting THC-induced increase in food-intake (first effective dose) (CB1 receptor [2]; dose response in 24 h-food deprived mice, 0.5 mg/kg dose was ineffective): 1 mg/kg; inhibition in vivo at 6 mg/kg (TNF-α): 60%
CC(=O)[C@@]1(C)CCC2C3CC=C4C[C@@H](F)CC[C@]4(C)C3CC[C@@]21C (stereo partly drawn) [Compound 3, 3β-Fluoro-17α-methylpregnenolone]	non statistically significant trend to decrease	decreased THC-induced hyperphagia	≥100%, P < 0.01	None of the modified pregnenolone derivatives	Reduced metabolism	6	dose-dependently decreased food intake	
CCCCCCC(C)(C)c1cc(O)c2c(c1)OC(C)(C)[C@@H]1CC=C(CO)C[C@@H]21 [HU210]								effect of CB1/CB2 agonists on pregnenolone concentrations (CB1 receptor [6]): induced a significant increase in pregnenolone
CCCC(C)(C)c1ccc2c(c1)OC(C)(C)[C@@H]1CC=C(C)C[C@@H]21 [JWH, 133]								effect of CB1/CB2 agonists on pregnenolone concentrations (CB1 receptor [6]): much lower and not significant effects
CCCCCc1cc(O)c2c(c1)OC(C)(C)[C@@H]1CCC(C)=C[C@@H]21 [THC, Δ9-tetrahydrocannbinol, reference compound]								inhibition at 10 µM (CB1 receptor [7]; THC 10 μM): 23.9 ± 6%; inhibition at 20 µM (CB1 receptor [7]; THC 20 μM): 35.3 ± 4.7%; inhibition at 40 µM (CB1 receptor [7]; THC 40 μM): 48.6 ± 3.6%; increase in brain concentrations of pregnenolone (CB1 receptor [6]; nucleus accumbens, between 15 and 30 min after the injection, THC 3 mg/kg): around 1500%; ED50 (CB1 receptor [6]; rat, 30 min after the injection, THC 0.3-9 mg/kg, read-out: ED50 of the increase in pregnenolone in the brain): ~3 mg/kg; inhibition of EPSC amplitude by THC (CB1 receptor [8]): 34.3±3.7 % of inhibition
Cc1c(C(=O)NN2CCCCC2)nn(-c2ccc(Cl)cc2Cl)c1-c1ccc(Cl)cc1 [rimonabant, reference compound]								anxiety-like behavior (entries and time spent in open arms) [9]: anxiogenic effects
